Data set [1] is described as follows: in vitro. As to conditions: African green monkey; for CC50 at 4 days: uninfected quiescent Vero-B cells.
In data set [2] the test system is DENV-3 strain H87 prototype. The experiment in a line: Antiviral activity against DENV-3 in Vero-B cells (viral RNA load by RT-qPCR). The format is cell-based, Dengue virus. To be noted: Dengue virus, DENV3, Vero B. In general terms: Real-time PCR tracks product formation cycle by cycle.
Data set [3] deals with DENV-1 Djibouti strain D1/H/IMTSSA/98/606. The experiment in a line: Antiviral activity against DENV-1 in Vero-B cells (viral RNA load by RT-qPCR). Type of data set: cell-based, Dengue virus. To be noted: Dengue virus, DENV1, Vero B.
The test system of data set [4] is DENV-2 NGC. Briefly: Antiviral activity against DENV-2 NGC in Vero-B cells (viral RNA load by RT-qPCR). The format is cell-based, Dengue virus. As to conditions: Dengue virus, DENV2, Vero B, DENV-2 in Vero-B cells; inhibition of viral RNA replication by 50% (Table 3).
In data set [5] the test system is YFV-17D. The experiment in a line: microbe, parasite or virus in culture. Type of data set: cell-based. To be noted: Yellow fever virus, Vero B.
In data set [6] the test system is uninfected quiescent Vero-B cells. Briefly: Cytotoxic assay in uninfected quiescent Vero-B cells (MTS/PMS). To be noted: 4 days (Table 3).
The test system of data set [7] is DENV-4 strain Dak HD 34 460. The experiment in a line: Antiviral activity against DENV-4 in Vero-B cells (viral RNA load by RT-qPCR). Type of data set: cell-based, Dengue virus. To be noted: Dengue virus, DENV4, Vero B.
Data set [8] relates to DENV-2 NGC. Briefly: Antiviral activity against DENV-2 NGC in A549 cells (viral RNA load by RT-qPCR). The format is cell-based. As to conditions: Dengue virus, DENV2; DENV-2 in A549 cells (Table 6).
Data set [9] can be described thus: Cytotoxicity in A549 cells (MTS/PMS). To be noted: human; A549 cells (Table 6). The format is cell-based. The method, then:
A similar protocol was used to assess cytotoxicity in A549 cells with the difference that cells were seeded at 2×10^4 cells/well.

The test system of data set [10] is DENV-2 strain D2Y98P. The experiment in a line: Dengue mortality model in AG129 mice. Type of data set: in vivo. As to conditions: 60 mg/kg/day, sc, twice daily, 17 consecutive days; DENV-2 D2Y98P infected AG129 mice; p: 0.0017; FIG. 1.

For the molecule `COc1cc(NC(C(=O)c2c(C)[nH]c3ccccc23)c2ccccc2)cc(OC)c1` (stereo not drawn) [CPD-012], in [1], the CC50 stood at 12 µM. This molecule came in with a CC50 at 4 days in [1] of 14 µM. In addition, the EC50 in data set [2] was under 500 nM; in data set [3], 4420 nM; in data set [4] it was 50 nM; in [5], under 500 nM.

`COc1cc(NC(C(=O)c2c[nH]c3ccccc23)c2cccnc2)cc(OC)c1` (stereo not drawn) [CPD-236] registered a CC50 in data set [6] of 69 µM. The EC50 in data set [7] was found to be 2.45 µM; in [2], 310 nM; in data set [3] it was 170 nM; in data set [8], 19 nM; in data set [4], 20 nM. Also, the CC50 at 4 days in data set [9] is 65 µM.

`COc1cccc(NC(C(=O)c2c[nH]c3ccccc23)c2nc3ccccc3o2)c1` (stereo not drawn) [CPD-328]: the CC50 in data set [6] was 13 µM. The EC50 in data set [7] stood at 2.84 µM; in data set [2] it was 130 nM; in data set [3] it was 200 nM; in data set [8] it was 6 nM; in [4] it was 10 nM. Further, the CC50 at 4 days in [9] was 12 µM.

On to `COc1cccc(NC(C(=O)c2c[nH]c3ccccc23)c2cccnc2)c1` (stereo not drawn) [CPD-019], for which the CC50 worked out at 71 µM in data set [6] and 56 µM in [1]. The EC50 in data set [7] is 8.38 µM; in data set [2], 2180 nM; in data set [3], 670 nM; in [4], 140 nM; in [5] it was 6180 nM.

Regarding `COc1cccc(NC(C(=O)c2csc3ccccc23)c2ccccc2)c1` (stereo not drawn) [CPD-193], the half-maximal effective concentration (EC50) in data set [7] was 5.44 µM; in data set [2] it was 18900 nM; in data set [3], 23700 nM; in data set [4], 720 nM; in [5] it was under 500 nM. The CC50 in data set [1] is over 133 µM. Also, in [1], the CC50 at 4 days was over 133 µM.

For `COc1cc(NC(C(=O)c2c[nH]c3ccc(F)cc23)c2ccccc2)cc(OC)c1` (stereo not drawn) [CPD-131], the CC50 in data set [6] came to 13 µM. Besides, the EC50 was determined as 4.77 µM in data set [7]; 680 nM in data set [2]; 250 nM in data set [3]; 8 nM in data set [8]; 10 nM in [4]. Besides, in [9], the CC50 at 4 days came out at 11 µM.

With `COc1cc(NC(C(=O)c2c[nH]c3cc(Cl)ccc23)c2ccccc2)cc(OC)c1` (stereo not drawn) [CPD-013], the 50% effective concentration (EC50) in data set [7] is 1.81 µM; in [2], under 500 nM; in data set [3], 90 nM; in [4], 2 nM; in data set [5], 520 nM. For the same molecule, the CC50 in data set [1] was found to be 11 µM. The CC50 at 4 days in data set [1] was 9 µM.

In [6], `COc1cc(NC(C(=O)c2c[nH]c3ccccc23)c2ccc(F)cc2)cc(OCCO)c1` (stereo not drawn) [CPD-350] displayed a CC50 of 46 µM. Moreover, the half-maximal effective concentration (EC50) worked out at 3.11 µM in data set [7], 280 nM in [2], 8 nM in data set [8] and 10 nM in data set [4]. This molecule also registered a CC50 at 4 days in [9] of 63 µM.

Regarding `COc1cc(NC(C(=O)c2c[nH]c3ccccc23)c2cc3ccccn3n2)cc(OCCO)c1` (stereo not drawn) [CPD-336], the EC50 in data set [7] amounted to 5.77 µM; in data set [2], 350 nM; in [3], 260 nM; in data set [8] it was 5 nM; in data set [4], 10 nM. The CC50 at 4 days in [1] and in data set [9] was over 123 µM each time.

As for `COc1ccc(NC(C(=O)c2c[nH]c3ccccc23)c2ccccc2)cc1OC` (stereo not drawn) [CPD-001], the CC50 turned out to be 29 µM in data set [6] and 43 µM in data set [1]. Besides, the EC50 in [7] came out at 4.45 µM; in data set [2], 29400 nM; in [3], 1600 nM; in data set [4] it was 80 nM; in [5] it was 9160 nM.

With `COc1cccc(NC(C(=O)c2c[nH]c3ccccc23)c2ccccc2)c1` (stereo not drawn) [CPD-010], the figures for the CC50 in data set [6] and in data set [1] were 18 µM and 12 µM, respectively. Also, the EC50 in data set [7] is 5.43 µM; in data set [2], 3540 nM; in data set [3] it was 1290 nM; in [8] it was 66 nM; in data set [4] it was 70 nM; in [5], under 600 nM. In [9], the CC50 at 4 days amounted to 16 µM.

With `COc1cc(NC(C(=O)c2c[nH]c3ccccc23)c2cnc(OC)cn2)cc(OC)c1` (stereo not drawn) [CPD-294], the EC50 in data set [7] was determined as 7.21 µM; in [2], 670 nM; in [3] it was 230 nM; in [8], 15 nM; in [4], 20 nM. Moreover, the CC50 at 4 days is 41 µM in data set [1] and 61 µM in data set [9].

With `COc1cc(NC(C(=O)c2c[nH]c3ccccc23)c2ccccc2)cc(OC)c1` (stereo not drawn) [CPD-002], the CC50 in [6] came out at 16 µM; in [1], 25 µM. Also, the EC50 in [7] is 27.2 µM; in data set [2], under 500 nM; in data set [3] it was 540 nM; in data set [4], 10 nM; in data set [5] it was 2810 nM.

Regarding `COc1cncc(NC(C(=O)c2c[nH]c3cc(F)ccc23)c2ccc(OC)nc2)c1` (stereo not drawn) [CPD-242], the “delay in virus-induced morbidity (day of euthanasia)” value in data set [10] is given as “highly significant delay”. In addition, the EC50 worked out at 7.87 µM in data set [7]; 570 nM in data set [2]; 400 nM in [3]; 10 nM in data set [8]; 40 nM in data set [4]. Further, the figures for the CC50 at 4 days in data set [1] and in data set [9] were 59 µM and 47 µM, respectively.

A word on the EC50: it is the concentration needed to bring the measured effect to its halfway point.

The values are drawn from patent US12012411B2, “Viral replication inhibitors” (Katholieke Universiteit Leuven, priority 2011, dated 2024).
